According to ChEMBL document CHEMBL3046898, “Synthesis and characterization of flurbiprofen hydrazide derivatives as potential anti-HCV, anticancer and antimicrobial agents” (2013):
Active and inactive are the calls of the source. The rule behind the calls is not given here.

What was measured:
Staphylococcus aureus [1] = experiment: Antibacterial activity against Staphylococcus aureus at 10 mg/ml after 24 hrs by disc diffusion method; type: functional
Candida tropicalis = experiment: Antifungal activity against Candida tropicalis at 10 mg/ml after 48 hrs by disc diffusion method; type: functional, organism-based
Kluyveromyces marxianus = experiment: Antifungal activity against Kluyveromyces marxianus at 10 mg/ml after 48 hrs by disc diffusion method; type: functional, organism-based
Staphylococcus cohnii [2] = experiment: Antibacterial activity against Staphylococcus cohnii at 10 mg/ml after 24 hrs by disc diffusion method; type: functional
Pseudomonas aeruginosa [3] = experiment: Antibacterial activity against Pseudomonas aeruginosa at 10 mg/ml after 24 hrs by disc diffusion method; type: functional, organism-based
Klebsiella aerogenes [4] = experiment: Antibacterial activity against Enterobacter aerogenes at 10 mg/ml after 24 hrs by disc diffusion method; type: functional, organism-based
Aspergillus = experiment: Antifungal activity against Aspergillus at 10 mg/ml after 72 hrs by disc diffusion method; type: functional, organism-based
Photorhabdus luminescens [5] = experiment: Antibacterial activity against Photorhabdus luminescens at 10 mg/ml after 24 hrs by disc diffusion method; type: functional, organism-based
Micrococcus luteus [6] = experiment: Antibacterial activity against Micrococcus luteus at 6.25 to 200 ug/ml after 24 hrs by microwell dilution method; type: functional, organism-based
Proteus vulgaris [7] = experiment: Antibacterial activity against Proteus vulgaris at 10 mg/ml after 24 hrs by disc diffusion method; type: functional, organism-based
Micrococcus luteus [8] = experiment: Antibacterial activity against Micrococcus luteus at 10 mg/ml after 24 hrs by disc diffusion method; type: functional, organism-based
Escherichia coli [9] = experiment: Antibacterial activity against Escherichia coli at 10 mg/ml after 24 hrs by disc diffusion method; type: functional, organism-based
Escherichia coli [10] = experiment: Antibacterial activity against Escherichia coli at 6.25 to 200 ug/ml after 24 hrs by microwell dilution method; type: functional, organism-based
Nakaseomyces glabratus = experiment: Antifungal activity against Candida glabrata at 10 mg/ml after 48 hrs by disc diffusion method; type: functional, organism-based
[11] = system: Schwanniomyces occidentalis; experiment: Antifungal activity against Schwanniomyces occidentalis at 10 mg/ml after 48 hrs by disc diffusion method; type: functional, organism-based
Pseudomonas aeruginosa [12] = experiment: Antibacterial activity against Pseudomonas aeruginosa at 6.25 to 200 ug/ml after 24 hrs by microwell dilution method; type: functional, organism-based
Salmonella paratyphi [13] = experiment: Antibacterial activity against Salmonella paratyphi at 10 mg/ml after 24 hrs by disc diffusion method; type: functional, organism-based; details: Salmonella enterica subsp. enterica serovar Paratyphi A
Micrococcus lylae [14] = experiment: Antibacterial activity against Micrococcus lylae at 10 mg/ml after 24 hrs by disc diffusion method; type: functional, organism-based
Staphylococcus aureus [15] = experiment: Antibacterial activity against Staphylococcus aureus at 6.25 to 200 ug/ml after 24 hrs by microwell dilution assay; type: functional, organism-based
Candida parapsilosis = experiment: Antifungal activity against Candida parapsilosis at 10 mg/ml after 48 hrs by disc diffusion method; type: functional, organism-based
Proteus vulgaris [16] = experiment: Antibacterial activity against Proteus vulgaris at 6.25 to 200 ug/ml after 24 hrs by microwell dilution method; type: functional, organism-based
[17] = system: Acinetobacter radioresistens; experiment: Antibacterial activity against Acinetobacter radioresistens at 6.25 to 200 ug/ml after 24 hrs by microwell dilution method; type: functional, organism-based
Hepacivirus hominis = experiment: Inhibition of HCV N-terminal His-tagged NS5B RNA dependent RNA polymerase expressed in Escherichia coli DH5alpha using poly rA/U12 as primer at 200 uM after 60 mins by liquid scintillation counting
Micrococcus lylae [18] = experiment: Antibacterial activity against Micrococcus lylae at 6.25 to 200 ug/ml after 24 hrs by microwell dilution method; type: functional, organism-based
Pichia membranifaciens = experiment: Antifungal activity against Pichia membranifaciens at 10 mg/ml after 48 hrs by disc diffusion method; type: functional, organism-based
Photorhabdus luminescens [19] = experiment: Antibacterial activity against Photorhabdus luminescens at 6.25 to 200 ug/ml after 24 hrs by microwell dilution method; type: functional, organism-based
Staphylococcus cohnii [20] = experiment: Antibacterial activity against Staphylococcus cohnii at 6.25 to 200 ug/ml after 24 hrs by microwell dilution assay; type: functional, organism-based
Candida albicans = experiment: Antifungal activity against Candida albicans at 10 mg/ml after 48 hrs by disc diffusion method; type: functional, organism-based
Salmonella paratyphi [21] = experiment: Antibacterial activity against Salmonella paratyphi at 6.25 to 200 ug/ml after 24 hrs by microwell dilution method; type: functional, organism-based; details: Salmonella enterica subsp. enterica serovar Paratyphi A
Klebsiella aerogenes [22] = experiment: Antibacterial activity against Enterobacter aerogenes at 6.25 to 200 ug/ml after 24 hrs by microwell dilution method; type: functional, organism-based
[23] = system: Acinetobacter radioresistens; experiment: Antibacterial activity against Acinetobacter radioresistens at 10 mg/ml after 24 hrs by disc diffusion method; type: functional, organism-based

Row | Compound | Activity (Staphylococcus aureus [1]) | Activity (Candida tropicalis) | Activity (Kluyveromyces marxianus) | Activity (Staphylococcus cohnii [2]) | Activity (Pseudomonas aeruginosa [3]) | Activity (Klebsiella aerogenes [4]) | Activity (Aspergillus) | Activity (Photorhabdus luminescens [5]) | Activity (Micrococcus luteus [6]) | Activity (Proteus vulgaris [7]) | Activity (Micrococcus luteus [8]) | Activity (Escherichia coli [9]) | Activity (Escherichia coli [10]) | Activity (Nakaseomyces glabratus) | Activity [11] | Activity (Pseudomonas aeruginosa [12]) | Activity (Salmonella paratyphi [13]) | Activity (Micrococcus lylae [14]) | Activity (Staphylococcus aureus [15]) | Activity (Candida parapsilosis) | other results
1 | CC(C(=O)NNC(=S)Nc1ccccc1)c1ccc(-c2ccccc2)c(F)c1 (configuration not stated) | inactive | inactive | inactive | inactive | inactive | inactive | inactive | inactive | inactive | inactive | inactive | inactive | inactive | inactive | inactive | inactive | inactive | inactive | inactive | inactive | Activity (Proteus vulgaris [16]): inactive; Activity [17]: inactive; inhibition (Hepacivirus hominis): 8%; Activity (Micrococcus lylae [18]): inactive; Activity (Pichia membranifaciens): inactive; Activity (Photorhabdus luminescens [19]): inactive; Activity (Staphylococcus cohnii [20]): inactive; Activity (Candida albicans): inactive; Activity (Salmonella paratyphi [21]): inactive; Activity (Klebsiella aerogenes [22]): inactive; Activity [23]: inactive
2 | CC(C(=O)NNC(=S)NCc1ccccc1)c1ccc(-c2ccccc2)c(F)c1 (configuration not stated) | inactive | inactive | inactive | inactive | inactive | inactive | inactive | inactive | inactive | inactive | inactive | inactive | inactive | inactive | inactive | inactive | inactive | inactive | inactive | inactive | Activity (Proteus vulgaris [16]): inactive; Activity [17]: inactive; inhibition (Hepacivirus hominis): 8%; Activity (Micrococcus lylae [18]): inactive; Activity (Pichia membranifaciens): inactive; Activity (Photorhabdus luminescens [19]): inactive; Activity (Staphylococcus cohnii [20]): inactive; Activity (Candida albicans): inactive; Activity (Salmonella paratyphi [21]): inactive; Activity (Klebsiella aerogenes [22]): inactive; Activity [23]: inactive
